According to patent US20250281449A1, “NITROGEN-CONTAINING ANALOGS OF SALINOMYCIN FOR USE IN MULTIPLE MYELOMA (MM)” (Centre National de la Recherche Scientifique, priority 2021, published 2025):

Key:
JJN3 = experiment: Cell viability assay (Cell Titer-Glo), HMCL; assay type: cell-based; details: Homo sapiens, JJN-3, 96H
Protocol: The panel of 17 HMCL cell lines were incubated with increasing concentrations of Ironomycin (A), AM23 (B) or vehicle for 96H.
(§1) HMCL cell lines were cultured for 4 days in 96-well flat-bottom microtiter plates in RPMI 1640 medium or DMEM medium, 10% or 20% FCS (control medium) in the presence of various compounds. The number of viable cells in culture was determined using the Cell Titer-Glo Luminescent Cell Viability Assay from Promega, Madison, WI, USA using a Centro LB 960 luminometer (Berthold Technologies, Bad Wildbad, Germany).
This test is based on quantitation of the intracellular ATP present, which signals the presence of metabolically active cells. Data are expressed as the mean percentage of six replicates, normalized to the untreated control.

Phospho-H2A.X (S139) = experiment: DNA damage response, Phospho-H2A.X (S139) western blot; assay type: cell-based, human; details: IC50 and 200 nM, 24H
Protocol: Cells were treated with iron chelators (80 μM Deferasirox), and Ironomycin (IC50 and 200 nM) during 24H. Protein levels of Phospho-H2A.X (S139) were analyzed by western blot and normalized by the histone 3 protein level.
(§2) The total cell lysates were obtained with RIPA 1× lysis buffer (#9806, Cell Signaling®) according with the supplier recommendations.
(§3) Protein lysates migrate on 10% polyacrylamide gel (NP-0301, Novex, Life Technologies®), in MOPS 1× running buffer (NP0001, Novex, Life Technologies®) or MES 1× running buffer NP-0002, Novex, Life Technologies®) and proteins are transferred to nitrocellulose membrane (1B301001, I-Blot Transfert Starck, NuPAGE, Life Technologies®). The primary antibodies mouse-anti-phospho-Histone H2A.X (Ser139) clone JBW301 ( 1/1000, Merck Millipore), anti-H3K36me3 (#ab9050, abcam®), anti-H3K27me3 (#9733, Cell Signaling®), anti-MMSET (#65127, Cell Signaling® et ab75359, abcam), anti-MYC (#5605, Cell Signaling®) were incubated in TBS-Tween 20 0.1% (Tris-Buffered Saline, pH 7.4) with 5% non-fat milk or Bovine serum albumin (Sigma-Aldrich, A7906). Protein levels are objectified by labeling with an anti-α-tubulin mouse monoclonal antibody (Sigma, T9026, St Louis, MO, USA 1/1000) or anti-Histone 3 (ab18521, abcam). […] Quantification of protein levels was performed with Image J® software (National Institutes of Health, Bethesda, MD, USA).

XG-7 and OPM-2 cell line = experiment: Apoptosis with iron supplementation (FeCl3), Annexin V-PE; assay type: cell-based, human; details: 80 μM deferasirox or 100 nM Ironomycin, 4 hours then 72H with FeCl3 100 μM
Protocol: XG-7 and OPM-2 cell line was pre-incubated with or without 80 μM of deferasirox or 100 nM of Ironomycin, for 4 hours followed by 72H incubation in presence or absence of FeCl3 (100 μM). Apoptosis was assessed using Annexin V-PE staining by flow cytometry.
(§4) Annexin V-PE staining for apoptosis analysis was performed using the “PE Annexin V Apoptosis Detection Kit I” (559763, Becton Dickinson).

[1] = test system: pan-caspase, caspase3/7 and caspase 9 activity in OPM-2 cells; experiment: Caspase activity by luminometry; assay type: cell-based, human; details: OPM-2, 48H
Protocol: OPM-2 cells were treated as indicated during 48H and pan-caspase, caspase3/7 and caspase 9 activity were measured by luminometry. 4-OH-cyclophosphamide (80 μM) was used as a positive control (C).

XG7 and OPM-2 cells = experiment: Cell death with pan caspase inhibitor Q-VD-Oph pretreatment, AnnexinV-PE; assay type: cell-based, human; details: 20 μM Q-VD-Oph pretreatment, 48H
Protocol: XG7 and OPM-2 cells were pretreated at least 30 minutes by 20 μM of Q-VD-Oph as pan caspase inhibitor before treatment. Cells were treated as indicated during 48H, effect of Ironomycin on cell death induction was analyzed using AnnexinV-PE staining by flow cytometry (B). N=4.
as §4

MYC = experiment: Western blot of MYC protein level; assay type: cell-based, human; details: 24H
Protocol: (§5) Cells were treated with iron chelators (80 μM Deferasirox), and Ironomycin (IC50 and 200 nM) during 24H. Protein levels of MMSET (isoforms I and II), MYC, H3K36me3 and H3K27me3 were analyzed by western blot. MMSET (isoforms I and II) and MYC signal were normalized by α-tubulin protein level, H3K36me3 and H3K27me3 signal were normalized by total histone 3 protein level.
as §2
as §3, with “A7906).” for “A7906). Protein levels are objectified by labeling with an anti-α-tubulin mouse monoclonal antibody (Sigma, T9026, St Louis, MO, USA 1/1000) or anti-Histone 3 (ab18521, abcam).”

H3K36me3 = experiment: Western blot of histone methylation; assay type: cell-based, human; details: 24H
Protocol: as §5, §2
as §3, with “A7906).” for “A7906). Protein levels are objectified by labeling with an anti-α-tubulin mouse monoclonal antibody (Sigma, T9026, St Louis, MO, USA 1/1000) or anti-Histone 3 (ab18521, abcam).”

XG-7 cells = experiment: Drug combination concentration matrix, viability by ATP quantification, Bliss synergy; assay type: cell-based, human
Protocol: XG-7 or XG2 WT (XG2 neg) or XG2 melphalan resistant (XG2 Melph R) cell lines were respectively treated with increasing concentrations of ironomycin combined with melphalan during 96 h and cell viability was tested by ATP quantification to obtain the viability matrix. The synergy matrix was calculated as described in Material and Methods.
XG-7cells were treated with increasing concentrations of ironomycin combined with lenalidomide during 96 h and cell viability was tested by ATP quantification to obtain the viability matrix. The synergy matrix was calculated as described in Material and Methods.
XG-7cells were treated with increasing concentrations of ironomycin combined with pomalidomide during 96 h and cell viability was tested by ATP quantification to obtain the viability matrix. The synergy matrix was calculated as described in Material and Methods.
XG-7cells were treated with increasing concentrations of ironomycin combined with carfilzomib during 96 h and cell viability was tested by ATP quantification to obtain the viability matrix. The synergy matrix was calculated as described in Material and Methods.
XG-7cells were treated with increasing concentrations of ironomycin combined with AZD-5991 during 96 h and cell viability was tested by ATP quantification to obtain the viability matrix. The synergy matrix was calculated as described in Material and Methods
as §1
The interaction between the drugs tested in vitro was investigated with a concentration matrix test, in which increasing concentration of each single drug were assessed with all possible combinations of the other drugs. For each combination, the percentage of expected growing cells in the case of effect independence was calculated according to the Bliss equation (Combes et al., 2019): […]
where fuC is the expected fraction of cells unaffected by the drug combination in the case of effect independence, and fuA and fuB are the fractions of cells unaffected by treatment A and B, respectively. The difference between the fraction of living cells in the cytotoxicity test and the fuC value was considered as an estimation of the interaction effect, with […]. Synergy matrix was built with the R package “SynergyFinder”.

C#CCN[C@@H]1C=C[C@]2(O[C@H]([C@@H](CC)C(=O)[C@@H](C)[C@@H](O)[C@H](C)[C@@H]3O[C@@H]([C@@H](CC)C(=O)O)CC[C@@H]3C)[C@@H](C)C[C@H]2C)O[C@@]12CC[C@@](C)([C@H]1CC[C@](O)(CC)[C@H](C)O1)O2 [Ironomycin]
IC50 (JJN3): 84 nM
DNA double strand breaks (Phospho-H2A.X (S139)): DNA double strand breaks
effect of iron supplementation on induced apoptosis (XG-7 and OPM-2 cell line): not reversed by Iron supplementation
effect of iron supplementation on induced apoptosis (XG-7 and OPM-2 cell line; listed as ironomycin): did not affect
caspase activation [1]: activation of caspases 3/7 and 9
inhibition of induced apoptosis by pan caspase inhibitor Q-VD-Oph (XG7 and OPM-2 cells): partially inhibited
MYC protein expression (MYC): significant downregulation
H3K36 methylation (H3K36me3): significant deregulation of H3K36 methylation
interaction effect, combined with AZD5991 (XG-7 cells; XG-7, 96 h): additive effect
interaction effect, combined with Lenalidomide (XG-7 cells; XG-7, 96 h): synergy
interaction effect, combined with Pomalidomide (XG-7 cells; XG-7, 96 h): synergy
interaction effect, combined with carfilzomib (XG-7 cells; XG-7, 96 h): additive effect
interaction effect, combined with melphalan (XG-7 cells; XG-7 or XG2 WT, 96 h): synergistic effect
